In patent US8591878B2, “Therapeutic compounds” (Merck Sharp & Dohme Corp., priority 2008, dated 2013):
pIC50: −log10 of the molar value.

system: subgenomic HCV replicon in Huh-7 cells; assay: Cell-Based HCV Replication Assay (replicon, NS3 Cell-ELISA); parameters: species or system hepatitis C virus (HCV); details: Hepatitis C virus, Huh-7, 96 h, read-out: Cell based HCV Replication Assay-IC50
Excerpt: Another suitable assay is the cellular Replicon or rheplisa assay described as follows:
Cell-Based HCV Replication Assay
Cell clones that stably maintain subgenomic HCV replicon were obtained by transfecting Huh-7 cells with an RNA replicon identical to I377neo/NS3-3′/wt described by V. Lohmann et al., 285 SCIENCE 110 (Jul. 2, 1999) (EMBL-GENBANK No. AJ242652), followed by selection with neomycin sulfate (G418). Viral replication was monitored by measuring the expression of the NS3 protein by an ELISA assay performed directly on cells grown in 96-well microtiter plates (Cell-ELISA) using the anti-NS3 monoclonal antibody 10E5/24 (as described in International Patent Application Publication WO 02/59321). Cells were seeded into 96 well plates at a density of 10^4 cells per well in a final volume of 0.1 ml of DMEM/10% FCS. Two hours after plating, 50 μl of DMEM/10% FCS containing a 3× concentration of inhibitor were added, cells were incubated for 96 hours and then fixed for 10 minutes with ice-cold isopropanol. Each condition was tested in duplicate and average absorbance values were used for calculations. The cells were washed twice with PBS, blocked with 5% non-fat dry milk in PBS+0.1% TRITON X-100+0.02% SDS (PBSTS) and then incubated o/n at 4° C. with the 10E5/24 mab diluted in Milk/PBSTS. After washing 5 times with PBSTS, the cells were incubated for 3 hours at room temperature with Fe-specific anti-mouse IgG conjugated to alkaline phosphatase (Sigma), diluted in Milk/PBSTS. After washing again as above, the reaction was developed with p-nitrophenyl phosphate disodium substrate (Sigma) and the absorbance at 405/620 nm read at intervals. For calculations, we used data sets where samples incubated without inhibitors had absorbance values comprised between 1 and 1.5. The inhibitor concentration that reduced by 50% the expression of NS3 (IC50) was calculated by fitting the data to the Hill equation, Fraction inhibition=1−(Ai−b)/(A0−b)=[I]^n/([I]+IC50) where: • Ai=absorbance value of HBI10 cells supplemented with the indicated inhibitor concentration. • A0=absorbance value of HBI10 cells incubated without inhibitor. • b=absorbance value of Huh-7 cells plated at the same density in the same microtiter plates and incubated without inhibitor. • n=Hill coefficient.

SMILES	pIC50
C=C[C@@H]1C[C@]1(NC(=O)[C@@H]1C[C@@H]2CN1C(=O)[C@H](C1CCCCC1)NC(=O)N1CCC[C@H](C1)OCCCc1cc3c(cc(OCC)nc3cc1OC)O2)C(=O)NS(=O)(=O)C1CC1 [Example 12, (3R,5S,8S,15R)-8-cyclohexyl-N-((1R,2S)-1-{[(cyclopropylsulfonyl)amino]carbonyl}-2-vinylcyclopropyl)-25-ethoxy-21-methoxy-7,10-dioxo-2,16-dioxa-6,9,11,24-tetraazapentacyclo [18.6.2.1^3,6.1^11,15.0^23,27] triaconta-1(27),20,22,23,25,27-hexaene-5-carboxamide]	8.40

same assay, conditions: Hepatitis C virus; Huh-7 cells with subgenomic HCV replicon; NS3 expression by Cell-ELISA; 96 hours incubation; read-out: Cell based HCV Replication Assay-IC50

SMILES	pIC50
C=C[C@@H]1C[C@]1(NC(=O)[C@@H]1C[C@@H]2CN1C(=O)[C@H](C1CCCCC1)NC(=O)N1CC[C@@H](C1)OC/C=C/c1cc3c(cc(OCC)nc3cc1OC)O2)C(=O)NS(=O)(=O)C1CC1 [Example 13, (3R,5S,8S,14S,17E)-8-cyclohexyl-N-((1R,2S)-1-{[(cyclopropylsulfonyl)amino]carbonyl}-2-vinylcyclopropyl)-24-ethoxy-20-methoxy-7,10-dioxo-2,15-dioxa-6,9,11,23-tetraazapentacyclo [17.6.2.1^3,6.1^11,14.0^22,26] nonacosa-1(25),17,19,21,23,26-hexaene-5-carboxamide]	8.05
C=C[C@@H]1C[C@]1(NC(=O)C1C[C@@H]2CN1C(=O)[C@H](C1CCCC1)NC(=O)N1CC[C@@H](C1)OCCC/C=C/c1cc3ccc(OC)cc3nc1O2)C(=O)NS(=O)(=O)C1CC1 (stereo partly drawn) [Example 17, (1R,13E,19S,25S,28S)-25-cyclopentyl-N-((1R,2S)-1-{[(cyclopropylsulfonyl)amino]carbonyl}-2-vinylcyclopropyl)-7-methoxy-23,26-dioxo-2,18-dioxa-4,22,24,27-tetraazapentacyclo [25.2.1.1^19,22.0^3,12.0^5,10] hentriaconta-3(12),4,5,7,9,10,13-heptaene-28-carboxamide]	8.40
C=C[C@@H]1C[C@]1(NC(=O)[C@@H]1C[C@@H]2CN1C(=O)[C@H](C1CCCC1)NC(=O)N1CC[C@@H](C1)OCCCCCc1cc3ccc(OC)cc3nc1O2)C(=O)NS(=O)(=O)C1CC1 [Example 18, (1R,19S,25S,28S)-25-cyclopentyl-N-((1R,2S)-1-{[(cyclopropylsulfonyl)amino]carbonyl}-2-vinylcyclopropyl)-7-methoxy-23,26-dioxo-2,18-dioxa-4,22,24,27-tetraazapentacyclo [25.2.1.1^19,22.0^3,12.0^5,10] hentriaconta-3(12),4,5,7,9,10-hexaene-28-carboxamide]	8.15
CC[C@@H]1C[C@]1(NC(=O)[C@@H]1C[C@@H]2CN1C(=O)[C@H](C1CCCC1)NC(=O)N1CC[C@@H](C1)OCCC/C=C/c1cc3ccc(OC)cc3nc1O2)C(=O)NS(=O)(=O)C1CC1 [Example 19, (1R,13E,19S,25S,28S)-25-cyclopentyl-N-((1R,2R)-1-{[(cyclopropylsulfonyl)amino]carbonyl}-2-ethylcyclopropyl)-7-methoxy-23,26-dioxo-2,18-dioxa-4,22,24,27-tetraazapentacyclo [25.2.1.1^19,22.0^3,12.0^5,10] hentriaconta-3(12),4,5,7,9,10,13-heptaene-28-carboxamide]	8.40
C=C[C@@H]1C[C@]1(NC(=O)[C@@H]1C[C@@H]2CN1C(=O)[C@H](C1CCCC1)NC(=O)N1CC[C@H](C1)OCCC/C=C/c1cc3ccc(OC)cc3nc1O2)C(=O)NS(=O)(=O)C1CC1 [Example 21, (1R,13E,19S,25S,28S)-25-cyclopentyl-N-((1R,2R)-1-{[(cyclopropylsulfonyl)amino]carbonyl}-2-vinylcyclopropyl)-7-methoxy-23,26-dioxo-2,18-dioxa-4,22,24,27-tetraazapentacyclo [25.2.1.1^19,22.0^3,12.0^5,10] hentriaconta-3(12),4,5,7,9,10,13-heptaene-28-carboxamide]	7.70
C=C[C@@H]1C[C@]1(NC(=O)[C@@H]1C[C@@H]2CN1C(=O)[C@H](C1CCCC1)NC(=O)N1CC[C@@H](C1)OC/C=C/c1cc3c(cc(OCC)nc3cc1OC)O2)C(=O)NS(=O)(=O)C1CC1 [Example 22, (3R,5S,8S,14S,17E)-8-cyclopentyl-N-((1R,2S)-1-{[(cyclopropylsulfonyl)amino]carbonyl}-2-vinylcyclopropyl)-24-ethoxy-20-methoxy-7,10-dioxo-2,15-dioxa-6,9,11,23-tetraazapentacyclo [17.6.2.1^3,6.1^11,14.0^22,26] nonacosa-1(25),17,19,21,23,26-hexaene-5-carboxamide]	7.96
CCOc1cc2c3cc(c(OC)cc3n1)/C=C/CO[C@H]1CCN(C1)C(=O)N[C@@H](C1CCCC1)C(=O)N1C[C@@H](C[C@H]1C(=O)N[C@]1(C(=O)NS(=O)(=O)C3CC3)C[C@H]1CC)O2 [Example 23, (3R,5S,8S,14S,17E)-8-cyclopentyl-N-((1R,2R)-1-{[(cyclopropylsulfonyl)amino]carbonyl}-2-ethylcyclopropyl)-24-ethoxy-20-methoxy-7,10-dioxo-2,15-dioxa-6,9,11,23-tetraazapentacyclo [17.6.2.1^3,6.1^11,14.0^22,26] nonacosa-1(25),17,19,21,23,26-hexaene-5-carboxamide]	8.15
C=C[C@@H]1C[C@]1(NC(=O)[C@@H]1C[C@@H]2CN1C(=O)[C@H](C1CCCC1)NC(=O)N1CC[C@H](COCCCc3nc4ccc(OC)cc4cc3O2)C1)C(=O)NS(=O)(=O)C1CC1 [Example 25, (1R,18S,24S,27S)-24-cyclopentyl-N-((1R,2R)-1-{[(cyclopropylsulfonyl)amino]carbonyl}-2-vinylcyclopropyl)-7-methoxy-22,25-dioxo-2,16-dioxa-11,21,23,26-tetraazapentacyclo [24.2.1.1^18,21.0^3,12.0^5,10] triaconta-3(12),4,5,7,9,10-hexaene-27-carboxamide]	8.15
C=C[C@@H]1C[C@]1(NC(=O)[C@@H]1C[C@@H]2CN1C(=O)[C@H](C1CCCC1)NC(=O)N1CCC[C@@H]1COCCCc1ccc3nc(OCC)nc(c3c1)O2)C(=O)NS(=O)(=O)C1CC1 [Example 28, (6R,8S,11S,17aR)-11-cyclopentyl-N-((1R,2S)-1-{[(cyclopropylsulfonyl)amino]carbonyl}-2-vinylcyclopropyl)-3-ethoxy-10,13-dioxo-7,8,10,11,12,13,16,17,17a,18, 20,21-dodecahydro-6H,15H-1,22-(ethanediylidene)-6,9-methanopyrimido [4,5-n] pyrrolo[2,1-c][1,13,4,6,9] dioxatriazacyclononadecine-8-carboxamide]	8.22
C=C[C@@H]1C[C@]1(NC(=O)[C@@H]1C[C@@H]2CN1C(=O)[C@H](C1CCCC1)NC(=O)N1CC[C@@H](C1)OC/C=C/Cn1cc(C)c3c4ccccc4nc(c31)O2)C(=O)NS(=O)(=O)C1CC1 [Example 31, (4E,8S,14S,17S,19R)-14-cyclopentyl-N-((1R,2S)-1-{[(cyclopropylsulfonyl)amino]carbonyl}-2-vinylcyclopropyl)-1-methyl-12,15-dioxo-3,6,9,10,12,13,14,15,18,19-decahydro-8H,17H-8,11:16,19-dimethano-7,20-dioxa-2a,11,13,16,21-pentaazabenzo[g] cyclohenicosa[1,2,3-cd]indene-17-carboxamide]	8.15
C=C[C@@H]1C[C@]1(NC(=O)[C@@H]1C[C@@H]2CN1C(=O)[C@H](C1CCCC1)CNC(=O)N1CC[C@H](COCCCc3nc4ccc(OC)cc4cc3O2)C1)C(=O)NS(=O)(=O)C1CC1 [Example 33, (1R,18S,24S,27S)-24-cyclopentyl-N-((1R,2R)-1-{[(cyclopropylsulfonyl)amino]carbonyl}-2-vinylcyclopropyl)-7-methoxy-22,25-dioxo-2,16-dioxa-11,21,23,26-tetraazapentacyclo [24.2.1.1^18,21.0^3,12.0^5,10] triaconta-3(12),4,5,7,9,10-hexaene-27-carboxamide]	< 7.00

same assay, conditions: Huh-7 cells with subgenomic HCV replicon; NS3 expression by Cell-ELISA; 96 hours incubation; read-out: Cell based HCV Replication Assay-IC50

SMILES	pIC50
CC[C@@H]1C[C@]1(NC(=O)[C@@H]1C[C@@H]2CN1C(=O)[C@H](C1CCCC1)NC(=O)N1CC[C@@H](C1)OCCCCCc1cc3ccc(OC)cc3nc1O2)C(=O)NS(=O)(=O)C1CC1 [Example 20, (1R,19S,25S,28S)-25-cyclopentyl-N-((1R,2R)-1-{[(cyclopropylsulfonyl)amino]carbonyl}-2-ethylcyclopropyl)-7-methoxy-23,26-dioxo-2,18-dioxa-4,22,24,27-tetraazapentacyclo [25.2.1.1^19,22.0^3,12.0^5,10] hentriaconta-3(12),4,5,7,9,10-hexaene-28-carboxamide]	7.82
